# Data taken from patent publication US9856279B2 (AGIOS PHARMACEUTICALS, INC, priority 2011, dated 2018).
# Molecular target: IDH1 R132H (Homo sapiens, UniProt O75874, R132H)
# Experiment: Assay for IDH1 R132H inhibitors (NADPH/aKG, resazurin detection)
# Format: biochemical
# Conditions: enzyme assay of Example 12; read-out: IDH1R132H IC50
# Outline: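 Compound added to substrate mix (8 uM NADPH, 2 mM aKG), then enzyme mix (0.2 μg/ml IDH1 R132H); 50 min RT in 20 mM Tris pH 7.5, 150 mM NaCl, 10 mM MgCl2, 0.03% BSA. Resazurin detection mix (30 μM) 5 min RT; resorufin fluorescence Ex544/Em590.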
# Chain of IDH1 R132H (O75874 whole entry R132H): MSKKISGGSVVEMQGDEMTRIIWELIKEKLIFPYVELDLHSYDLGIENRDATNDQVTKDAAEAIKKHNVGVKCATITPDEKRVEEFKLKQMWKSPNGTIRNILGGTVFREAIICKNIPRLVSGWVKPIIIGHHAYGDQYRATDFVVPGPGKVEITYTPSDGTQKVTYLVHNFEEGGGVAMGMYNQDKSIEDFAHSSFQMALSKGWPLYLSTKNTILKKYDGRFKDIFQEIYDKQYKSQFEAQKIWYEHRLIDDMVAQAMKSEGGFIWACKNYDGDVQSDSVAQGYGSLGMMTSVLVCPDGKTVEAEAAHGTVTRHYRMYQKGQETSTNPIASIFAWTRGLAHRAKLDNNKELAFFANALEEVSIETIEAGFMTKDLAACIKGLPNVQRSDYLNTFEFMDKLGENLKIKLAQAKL
row,SMILES,IC50 [nM]
1,"C[C@@H]1CN(c2nc(C3CC3)c(Nc3ccnc(Cl)c3)cc2C#N)CCN1C(=O)CCO [Compound 661, (R)-5-((2-chloropyridin-4-yl)amino)-6-cyclopropyl-2-(4-(3-hydroxypropanoyl)-3-methylpiperazin-1-yl)nicotinonitrile]",< 500
2,"COCCC(=O)N1CCN(c2nc(C3CC3)c(-c3ccc(C(=O)OC)cc3)cc2C#N)C[C@H]1C [Compound 665, (R)-methyl-4-(5-cyano-2-cyclopropyl-6-(4-(3-methoxypropanoyl)-3-methylpiperazin-1-yl)pyridin-3-yl)benzoate]",< 500
3,"N#Cc1cc(-c2cnnc(O)c2)c(C2CC2)nc1N1CCN(C(=O)CCO)[C@H](C2CC2)C1 [Compound 671, (R)-6-cyclopropyl-2-(3-cyclopropyl-4-(3-hydroxypropanoyl)piperazin-1-yl)-5-(6-hydroxypyridazin-4-yl)nicotinonitrile]",< 500
4,"COCCC(=O)N1CCN(c2nc(C3CC3)c(-c3cc(Cl)nc(C#N)c3)cc2C#N)C[C@H]1C [Compound 673, (R)-6′-chloro-2-cyclopropyl-6-(4-(3-methoxypropanoyl)-3-methylpiperazin-1-yl)-[3,4′-bipyridine]-2′,5-dicarbonitrile]",500 to 1000
5,"COCCC(=O)N1CCN(c2nc(C3CC3)c(Nc3ccnc(OC)c3)cc2C#N)C[C@H]1C [Compound 682, (R)-6-cyclopropyl-2-(4-(3-methoxypropanoyl)-3-methylpiperazin-1-yl)-5-((2-methoxypyridin-4-yl)amino)nicotinonitrile]",< 500
6,"COCCC(=O)N1CCN(c2nc(C3CC3)c(Nc3ccnc(C(=O)OC)c3)cc2C#N)C[C@H]1C [Compound 683, (R)-methyl 4-((5-cyano-2-cyclopropyl-6-(4-(3-methoxypropanoyl)-3-methylpiperazin-1-yl)pyridin-3-yl)amino)picolinate]",< 500
7,"N#Cc1cc(Cc2ccnc(Cl)c2)c(C2CC2)nc1N1CCN(C(=O)C2CC2)[C@H](C2CC2)C1 [Compound 685, (R)-5-((2-chloropyridin-4-yl)methyl)-2-(4-(cyclopropanecarbonyl)-3-cyclopropylpiperazin-1-yl)-6-cyclopropylnicotinonitrile]",1000 to 10000
8,"COCCC(=O)N1CCN(c2nc(C3CC3)c(N(C)c3ccnc(Cl)c3)cc2C#N)C[C@H]1C [Compound 699, (R)-5-((2-chloropyridin-4-yl)(methyl)amino)-6-cyclopropyl-2-(4-(3-methoxypropanoyl)-3-methylpiperazin-1-yl)nicotinonitrile]",< 500
9,"N#Cc1cc(-c2cc(CCN)nc(N)n2)c(C2CC2)nc1N1CCN(C(=O)C2CC2)[C@H](C2CC2)C1 [Compound 701, (R)-5-(2-amino-6-(2-aminoethyl)pyrimidin-4-yl)-2-(4-(cyclopropanecarbonyl)-3-cyclopropylpiperazin-1-yl)-6-cyclopropylnicotinonitrile]",< 500
10,"C[C@@H]1CN(c2nc(C3CC3)c(Oc3ccnc(Cl)c3)cc2C#N)CCN1C(=O)CCO [Compound 704, (R)-5-((2-chloropyridin-4-yl)oxy)-6-cyclopropyl-2-(4-(3-hydroxypropanoyl)-3-methylpiperazin-1-yl)nicotinonitrile]",< 500
11,"CC(C)(C)OC(=O)Nc1cnnc(-c2cc(C#N)c(N3CCN(C(=O)CCO)[C@H](C4CC4)C3)nc2C2CC2)c1 [Compound 723, (R)-tert-butyl(6-(5-cyano-2-cyclopropyl-6-(3-cyclopropyl-4-(3-hydroxypropanoyl)piperazin-1-yl)pyridin-3-yl)pyridazin-4-yl)carbamate]",< 500
12,"COCCC(=O)N1CCN(c2nc(C3CC3)c(Nc3ccnc(C(N)=O)c3)cc2C#N)C[C@H]1C [Compound 729, (R)-4-(5-cyano-2-cyclopropyl-6-(4-(3-methoxypropanoyl)-3-methylpiperazin-1-yl)pyridin-3-ylamino)picolinamide]",< 500
13,"N#Cc1cc(Oc2cc(Cl)ccn2)c(C2CC2)nc1N1CCN(C(=O)CCO)[C@H](C2CC2)C1 [Compound 734, (R)-5-((4-chloropyridin-2-yl)oxy)-6-cyclopropyl-2-(3-cyclopropyl-4-(3-hydroxypropanoyl)piperazin-1-yl)nicotinonitrile]",< 500
14,"COC(=O)CCC(=O)N1CCN(c2nc(C3CC3)c(-c3ccnc(Cl)c3)cc2C#N)C[C@H]1C1CC1 [Compound 739, (R)-methyl 4-(4-(2′-chloro-5-cyano-2-cyclopropyl-3,4′-bipyridin-6-yl)-2-cyclopropylpiperazin-1-yl)-4-oxobutanoate]",< 500
15,"C=Cc1cc(-c2c(C3CC3)nc(N3CCN(C(=O)OC(C)(C)C)[C@H](C4CC4)C3)c(C#N)c2C)cnn1 [Compound 772, (R)-tert-butyl 4-(3-cyano-6-cyclopropyl-4-methyl-5-(6-vinylpyridazin-4-yl)pyridin-2-yl)-2-cyclopropylpiperazine-1-carboxylate]",500 to 1000
16,"COCCC(=O)N1CCN(c2nc(C3CC3)c(-c3ccnc(OS(=O)(=O)C(F)(F)F)c3)cc2C#N)C[C@H]1C [Compound 779, (R)-5-cyano-2-cyclopropyl-6-(4-(3-methoxypropanoyl)-3-methylpiperazin-1-yl)-[3,4′-bipyridin]-2′-yl trifluoromethanesulfonate]",1000 to 10000

row,SMILES,IC50 [nM]
1,"C=Cc1cnnc(-c2c(C3CC3)nc(N3CCN(C(=O)C[C@@H]4CCO4)[C@H](C4CC4)C3)c(C#N)c2C)c1 [Compound 780, 6-cyclopropyl-2-((R)-3-cyclopropyl-4-(2-((S)-oxetan-2-yl)acetyl)piperazin-1-yl)-4-methyl-5-(5-vinylpyridazin-3-yl)nicotinonitrile]",< 500
2,"C=Cc1cnc2c(-c3cc(C#N)c(N4CCN(C(=O)/C=C/CCO)[C@H](C(C)C)C4)nc3C3CC3)cccc2n1 [Compound 790, (R)-6-cyclopropyl-2-(4-(5-hydroxypent-2-enoyl)-3-isopropylpiperazin-1-yl)-5-(2-vinylquinoxalin-5-yl)nicotinonitrile]",< 500
3,"C=Cc1ccnc(Nc2cc(C#N)c(N3CCN(C(=O)/C=C/CCO)[C@H](C(C)C)C3)nc2C2CC2)c1 [Compound 791, (R,E)-6-cyclopropyl-2-(4-(5-hydroxypent-2-enoyl)-3-isopropylpiperazin-1-yl)-5-((4-vinylpyridin-2-yl)amino)nicotinonitrile]",< 500
4,"C=Cc1cc(-c2c(C3CC3)nc(N3CCN(C(=O)/C=C/CCO)[C@H](C(C)C)C3)c(C#N)c2C)ccn1 [Compound 795, (R,E)-2-cyclopropyl-6-(4-(5-hydroxypent-2-enoyl)-3-isopropylpiperazin-1-yl)-4-methyl-2′-vinyl-3,4′-bipyridine-5-carbonitrile]",< 500
5,"C=Cc1ccnc(Nc2cc(C#N)c(N3CCN(C(=O)/C=C/CCO)[C@H](C4CC4)C3)nc2C2CC2)c1 [Compound 798, (R,E)-6-cyclopropyl-2-(3-cyclopropyl-4-(5-hydroxypent-2-enoyl)piperazin-1-yl)-5-((4-vinylpyridin-2-yl)amino)nicotinonitrile]",< 500
6,"C=Cc1cc(-c2cc(C#N)c(N3CCN(C(=O)CC4CCC(=O)O4)[C@H](C4CC4)C3)nc2C2CC2)ccn1 (stereo partly drawn) [Compound 802, 2-cyclopropyl-6-((3R)-3-cyclopropyl-4-(2-(5-oxotetrahydrofuran-2-yl)acetyl)piperazin-1-yl)-2′-vinyl-[3,4′-bipyridine]-5-carbonitrile]",< 500
7,"C=Cc1cc(-c2cc(C#N)c(N3CCN(C(=O)CN4CCCC4=O)[C@H](C4CC4)C3)nc2C2CC2)ccn1 [Compound 814, (R)-2-cyclopropyl-6-(3-cyclopropyl-4-(2-(2-oxopyrrolidin-1-yl)acetyl)piperazin-1-yl)-2′-vinyl-3,4′-bipyridine-5-carbonitrile]",500 to 1000
8,"C=Cc1ccnc(Nc2cc(C#N)c(N3CCN(C(=O)CN4CCCC4=O)[C@H](C4CC4)C3)nc2C2CC2)c1 [Compound 816, (R)-6-cyclopropyl-2-(3-cyclopropyl-4-(2-(2-oxopyrrolidin-1-yl)acetyl)piperazin-1-yl)-5-((4-vinylpyridin-2-yl)amino)nicotinonitrile]",500 to 1000
9,"C=Cc1cc(-c2c(C3CC3)nc(N3CCN(C(=O)C=C4CCC4)[C@H](C4CC4)C3)c(C#N)c2C)ccn1 [Compound 820, (R)-6-(4-(2-cyclobutylideneacetyl)-3-cyclopropylpiperazin-1-yl)-2-cyclopropyl-4-methyl-2′-vinyl-3,4′-bipyridine-5-carbonitrile]",< 500
10,C=Cc1cc(-c2cc(C#N)c(N3CCN(C(=O)C[C@H]4CCC(=O)O4)[C@H](C4CC4)C3)nc2C2CC2)ccn1 [Compound 821],< 500
11,"N#Cc1cc(Nc2ccnc(CO)c2)c(C2CC2)nc1N1CCN(C(=O)C[C@H]2CCO2)[C@H](C2CC2)C1 [Compound 824, 6-cyclopropyl-2-((R)-3-cyclopropyl-4-(2-((R)-oxetan-2-yl)acetyl)piperazin-1-yl)-5-((2-(hydroxymethyl)pyridin-4-yl)amino)nicotinonitrile]",< 500
12,"C=Cc1cc(-c2c(C3CC3)nc(N3CCN(C(=O)CCC4CC4)[C@H](C4CC4)C3)c(C#N)c2C)ccn1 [Compound 825, (R)-2-cyclopropyl-6-(3-cyclopropyl-4-(3-cyclopropylpropanoyl)piperazin-1-yl)-4-methyl-2′-vinyl-3,4′-bipyridine-5-carbonitrile]",< 500
13,"C=Cc1cc(-c2c(C3CC3)nc(N3CCN(C(=O)CCC4CCC4)[C@H](C4CC4)C3)c(C#N)c2C)ccn1 [Compound 826, (R)-6-(4-(3-cyclobutylpropanoyl)-3-cyclopropylpiperazin-1-yl)-2-cyclopropyl-4-methyl-2′-vinyl-3,4′-bipyridine-5-carbonitrile]",< 500
14,"C=Cc1cc(-c2c(C3CC3)nc(N3CCN(C(=O)CCCCC)[C@H](C4CC4)C3)c(C#N)c2C)ccn1 [Compound 827, (R)-2-cyclopropyl-6-(3-cyclopropyl-4-hexanoylpiperazin-1-yl)-4-methyl-2′-vinyl-3,4′-bipyridine-5-carbonitrile]",< 500
15,C=Cc1ccnc(Nc2cc(C#N)c(N3CCN(C(=O)C[C@H]4CCCO4)[C@H](C4CC4)C3)nc2C2CC2)c1 [Compound 828],< 500
